{"source": "patent US10053485B2", "about": "“Cytotoxic agents that preferentially target leukemia inhibitory factor (LIF) for the treatment of malignancies and as new contraceptive agents” (Evestra, Inc., priority 2015, dated 2018)", "key": {"T47D breast cancer cells": {"tested_on": "T47D breast cancer cells", "test": "Soft agar colony formation assay", "type": "cell-based, human", "protocol": "Colonies of cancer cells formed in soft agar in the presence and absence of the testing compounds is a standard assay to interpret in-vitro tumorigenic potential in the basal layer. Agar was prepared by mixing 1% DNA grade agar melted and cooled to 40° C. with an equal volume of (2×) Dulbecco's Modified Eagle's Medium (DMEM) to obtain 0.5% agar that was dispersed in a 6-well plate and allowed to solidify. A total of 0.6% agar was prepared in RPMI medium and mixed together with T47D cells (0.5×10^6 cells/mL) and immediately plated on the basal layer in the presence or absence of testing compounds. The cultures were incubated at 37° C. in a CO2 incubator for 2 weeks, and colonies were stained with 0.005% crystal violet and observed under a light microscope."}, "CCRF-CEM": {"tested_on": "CCRF-CEM", "test": "NCI-60 screen, Leukemia panel", "type": "cell-based", "settings": "Homo sapiens, 48 h"}, "MDA-MB-231 (TNBC cells)": {"tested_on": "MDA-MB-231 (TNBC cells)", "test": "Short term (72 h) cytotoxicity assay", "type": "cell-based", "settings": "Homo sapiens; MDA-MB-231, 72 h cytotoxicity"}, "A549 (Lung cancer)": {"tested_on": "A549 (Lung cancer)", "test": "Short term (72 h) cytotoxicity assay", "type": "cell-based, human", "settings": "Homo sapiens; A549, 72 h cytotoxicity"}, "OVCAR-3": {"tested_on": "OVCAR-3", "test": "NCI-60 screen, Ovarian Cancer panel", "type": "cell-based", "settings": "Homo sapiens, OVCAR-3, 48 h", "protocol": "EC 330 was also tested using the NCI-60 Screening Methodology. The human tumor cell lines of the cancer screening panel are grown in RPMI 1640 medium containing 5% fetal bovine serum and 2 mM L-glutamine. For a typical screening experiment, cells are inoculated into 96 well microtiter plates in 100 μL at plating densities ranging from 5,000 to 40,000 cells/well depending on the doubling time of individual cell lines. After cell inoculation, the microtiter plates are incubated at 37° C., 5% CO2, 95% air and 100% relative humidity for 24 h prior to addition of experimental drugs. […]\nFollowing drug addition, the plates are incubated for an additional 48 h at 37° C., 5% CO2, 95% air, and 100% relative humidity. […] Bound stain is subsequently solubilized with 10 mM trizma base, and the absorbance is read on an automated plate reader at a wavelength of 515 nm. […] Using the seven absorbance measurements [time zero, (Tz), control growth, (C), and test growth in the presence of drug at the five concentration levels (Ti)], the percentage growth is calculated at each of the drug concentrations levels. Percentage growth inhibition is calculated as: [(Ti−Tz)/(C−Tz)]×100 for concentrations for which Ti>/=Tz [(Ti−Tz)/Tz]×100 for concentrations for which Ti<Tz.\nThree dose response parameters are calculated for each experimental agent. […]"}, "MCF7": {"tested_on": "MCF7", "test": "NCI-60 screen, Breast Cancer panel", "type": "cell-based", "settings": "Homo sapiens, MCF7, 48 h"}, "RPMI-8226": {"tested_on": "RPMI-8226", "test": "NCI-60 screen, Leukemia panel", "type": "cell-based", "settings": "Homo sapiens, RPMI-8226, 48 h"}, "SK-MEL-28": {"tested_on": "SK-MEL-28", "test": "NCI-60 screen, Melanoma panel", "type": "cell-based", "settings": "Homo sapiens, SK-MEL-28, 48 h"}, "SK-MEL-2": {"tested_on": "SK-MEL-2", "test": "NCI-60 screen, Melanoma panel", "type": "cell-based", "settings": "Homo sapiens, SK-MEL-2, 48 h"}, "[1]": {"tested_on": "human endometrial stromal cells (HESC)", "test": "Decidualization assay, actin cytoskeleton by phalloidin staining", "type": "cell-based", "settings": "FIG. 3", "protocol": "Decidualization studies: The above compounds were investigated originally for the treatment of endometriosis. The compounds were tested in a decidualization assay using human endometrial stromal fibroblast (HESC) cells. In preparation for the possibility of embryonic attachment, the stromal cells in the endometrium undergo extensive waves of proliferation, remodeling, and terminal differentiation that transforms the endometrium into an endocrine gland, called decidua. This transformation is called decidualization and it is under the control by ovarian hormones.\nThe level of apoptosis increases from the proliferative phase through menstrual cycle and peaks at menses. […] However if the cells are subjected to conditions that induce decidualization, stromal cells will begin to differentiate instead of undergoing apoptosis.\nBriefly, human stromal endometrial cells were plated in the presence and absence of progesterone and allow undergoing decidualization. The cells treated with test compounds of different concentrations and stained for actin cytocketal morphology using phalloidin staining and monitored under fluorescent microscope."}, "[2]": {"settings": "read-out: GI50 (log10GI50) (converted)"}, "[3]": {"settings": "read-out: LC50 (log10LC50) (converted)"}}}
{"compound": "C#CC(F)(F)[C@]1(O)CCC2C3CCC4=CC(=O)CCC4=C3C(c3ccc(C4CC4)cc3)C[C@@]21C", "note": "(stereo partly drawn) [EC330, 17α-(1,1-difluoro-2-propyn-1-yl)-17β-hydroxy-11β-[4-p-(cyclopropyl)phenyl]estra-4,9-dien-3-one]", "values": [{"measurement": "inhibition in the number of colonies formed", "setting": "T47D breast cancer cells; 100 nM concentration, in words", "value": "complete inhibition"}, {"measurement": "inhibition at 0.005 µM", "setting": "T47D breast cancer cells; Homo sapiens, T47D, 5 nM concentration, read-out: inhibition in the number of colonies formed", "value": 50, "unit": "%"}, {"measurement": "GI50", "setting": "CCRF-CEM; [2]", "value": "< 10", "unit": "nM"}, {"measurement": "CC50", "setting": "CCRF-CEM; [3]", "value": "< 10", "unit": "nM"}, {"measurement": "IC50", "setting": "MDA-MB-231 (TNBC cells)", "value": 34, "unit": "nM"}, {"measurement": "IC50", "setting": "A549 (Lung cancer)", "value": 25, "unit": "nM"}, {"measurement": "CC50", "setting": "OVCAR-3; [3]", "value": 933, "unit": "nM"}, {"measurement": "GI50", "setting": "OVCAR-3; SRB, read-out: GI50 (log10GI50) (converted)", "value": 12.9, "unit": "nM"}, {"measurement": "GI50", "setting": "MCF7; [2]", "value": 1230, "unit": "nM"}, {"measurement": "CC50", "setting": "MCF7; [3]", "value": "> 100000", "unit": "nM"}, {"measurement": "GI50", "setting": "RPMI-8226; [2]", "value": 112, "unit": "nM"}, {"measurement": "CC50", "setting": "RPMI-8226; [3]", "value": "> 100000", "unit": "nM"}, {"measurement": "GI50", "setting": "SK-MEL-28; [2]", "value": 1780, "unit": "nM"}, {"measurement": "CC50", "setting": "SK-MEL-28; [3]", "value": 7760, "unit": "nM"}, {"measurement": "GI50", "setting": "SK-MEL-2; [2]", "value": 2140, "unit": "nM"}, {"measurement": "CC50", "setting": "SK-MEL-2; [3]", "value": 30200, "unit": "nM"}, {"measurement": "actin / alpha-smooth muscle mediated cytoskeletal disruption of fibroblast", "setting": "[1]", "value": "cytoskeletal disruption"}]}
